Source: ChEMBL document CHEMBL6114949, “Synthesis and physiological effects of new 4-aminophenol derivatives as paracetamol analogues” (Bioorg Med Chem Lett, 2025)
Active and inactive are the calls of the source.

Legend:
Rattus norvegicus [1] = experiment: Antinociceptive activity in zymosan-induced rat model of thermal nociceptive hypersensitivity assessed as nociceptive response inhibition at 180 mg/kg, ig administered once daily for 7 days and measured 1 hr post-zymosan challenge on day 7 by hot-plate test (reference value: -42.4%); assay type: functional; conditions: po, 168 h, time 7 day
Rattus norvegicus [2] = experiment: Antipyretic activity against LPS-induced polyphasic febrile response in rats assessed as suppression of rise in core body temperature at 180 mg/kg, po treated 40 mins prior to LPS addition and measured after 200 mins; assay type: functional, organism-based; conditions: time 240.0 min
[3] = Hepatotoxicity in zymosan-induced rat arthritis model assessed as change in shape of liver central veins at 180 mg/kg, ig administered once daily for 7 days by hematoxylin-eosin staining based histological analysis; assay type: toxicity, organism-based; conditions: in vivo, po, 168 h, time 7 day
Rattus norvegicus [4] = experiment: Antinociceptive activity in zymosan-induced rat arthritis model assessed as nociceptive response inhibition at 180 mg/kg, ig administered once daily for 7 days and measured 1 hr post-zymosan challenge on day 7 by Randall-Selitto test (reference value: -34.6%); assay type: functional; conditions: po, 168 h, time 7 day
Rattus norvegicus [5] = experiment: Antipyretic activity against LPS-induced polyphasic febrile response in rats assessed as suppression of rise in core body temperature at 180 mg/kg, po treated 40 mins prior to LPS addition and measured after 160 mins relative to control; assay type: functional; conditions: time 200 min, 3.333 h
[6] = Hepatotoxicity in zymosan-induced rat arthritis model assessed as effect on sinusoids elongation at 180 mg/kg, ig administered once daily for 7 days by hematoxylin-eosin staining based histological analysis; assay type: toxicity, organism-based, Liver; conditions: in vivo, po, 168 h, time 7 day
[7] = Hepatotoxicity in zymosan-induced rat arthritis model assessed as effect on sinusoids arrangement at 180 mg/kg, ig administered once daily for 7 days by hematoxylin-eosin staining based histological analysis; assay type: toxicity, organism-based, Liver; conditions: in vivo, po, 168 h, time 7 day
[8] = Hepatotoxicity in zymosan-induced rat arthritis model assessed as effect on general architecture of liver at 180 mg/kg, ig administered once daily for 7 days by hematoxylin-eosin staining based histological analysis; assay type: toxicity, organism-based; conditions: in vivo, po, 168 h, time 7 day
[9] = Hepatotoxicity in zymosan-induced rat arthritis model assessed as change in hepatocyte karyoplasm at 180 mg/kg, ig administered once daily for 7 days by hematoxylin-eosin staining based histological analysis; assay type: toxicity, organism-based, Liver; conditions: in vivo, po, 168 h, time 7 day
[10] = Hepatotoxicity in zymosan-induced rat arthritis model assessed as change in hepatocyte cytoplasmic appearance at 180 mg/kg, ig administered once daily for 7 days by hematoxylin-eosin staining based histological analysis; assay type: toxicity, organism-based, Liver; conditions: in vivo, po, 168 h, time 7 day
[11] = Hepatotoxicity in zymosan-induced rat arthritis model assessed as disruption of hepatocyte membrane at 180 mg/kg, ig administered once daily for 7 days by hematoxylin-eosin staining based histological analysis; assay type: toxicity, organism-based, Liver; conditions: in vivo, po, 168 h, time 7 day
[12] = Hepatotoxicity in zymosan-induced rat arthritis model assessed as change in hepatocyte shape at 180 mg/kg, ig administered once daily for 7 days by hematoxylin-eosin staining based histological analysis; assay type: toxicity, organism-based, Liver; conditions: in vivo, po, 168 h, time 7 day
[13] = Hepatotoxicity in zymosan-induced rat arthritis model assessed as appearance of vacuoles in hepatocyte cytoplasm at 180 mg/kg, ig administered once daily for 7 days by hematoxylin-eosin staining based histological analysis; assay type: toxicity, organism-based, Liver; conditions: in vivo, po, 168 h, time 7 day
[14] = Hepatotoxicity in zymosan-induced rat arthritis model assessed as change in hepatocyte nucleus size at 180 mg/kg, ig administered once daily for 7 days by hematoxylin-eosin staining based histological analysis; assay type: toxicity, organism-based, Liver; conditions: in vivo, po, 168 h, time 7 day
Rattus norvegicus [15] = experiment: Antipyretic activity against LPS-induced polyphasic febrile response in rats assessed as change in core body temperature at 180 mg/kg, po treated 40 mins prior to LPS addition and measured after 160 mins during phase 1 (reference value: 0.85 deg C); assay type: functional, organism-based; conditions: time 200.0 min
Rattus norvegicus [16] = experiment: Antipyretic activity against LPS-induced polyphasic febrile response in rats assessed as suppression of rise in core body temperature at 180 mg/kg, po treated 40 mins prior to LPS addition and measured after 10 mins; assay type: functional, organism-based; conditions: time 50.0 min
[17] = Hepatotoxicity in zymosan-induced rat arthritis model assessed as change in shape of liver portal tracts at 180 mg/kg, ig administered once daily for 7 days by hematoxylin-eosin staining based histological analysis; assay type: toxicity, organism-based; conditions: in vivo, po, 168 h, time 7 day
[18] = Hepatotoxicity in zymosan-induced rat arthritis model assessed as effect on beam structure of liver at 180 mg/kg, ig administered once daily for 7 days by hematoxylin-eosin staining based histological analysis; assay type: toxicity, organism-based; conditions: in vivo, po, 168 h, time 7 day
[19] = Hepatotoxicity in zymosan-induced rat arthritis model assessed as change in hepatocyte nucleus size at 215 mg/kg, ig administered once daily for 7 days by hematoxylin-eosin staining based histological analysis; assay type: toxicity, organism-based, Liver; conditions: in vivo, po, 168 h, time 7 day
[20] = Hepatotoxicity in zymosan-induced rat arthritis model assessed as effect on beam structure of liver at 215 mg/kg, ig administered once daily for 7 days by hematoxylin-eosin staining based histological analysis; assay type: toxicity, organism-based; conditions: in vivo, po, 168 h, time 7 day
Rattus norvegicus [21] = experiment: Antinociceptive activity in zymosan-induced rat model of thermal nociceptive hypersensitivity assessed as nociceptive response inhibition at 215 mg/kg, ig administered once daily for 7 days and measured 1 hr post-zymosan challenge on day 7 by hot-plate test (reference value: -42.4%); assay type: functional; conditions: po, 168 h, time 7 day
Rattus norvegicus [22] = experiment: Antinociceptive activity in zymosan-induced rat arthritis model assessed as nociceptive response inhibition at 215 mg/kg, ig administered once daily for 7 days and measured 1 hr post-zymosan challenge on day 7 by Randall-Selitto test (reference value: -34.6%); assay type: functional; conditions: po, 168 h, time 7 day
[23] = Hepatotoxicity in zymosan-induced rat arthritis model assessed as disruption of hepatocyte membrane at 215 mg/kg, ig administered once daily for 7 days by hematoxylin-eosin staining based histological analysis; assay type: toxicity, organism-based, Liver; conditions: in vivo, po, 168 h, time 7 day
[24] = Hepatotoxicity in zymosan-induced rat arthritis model assessed as effect on sinusoids arrangement at 215 mg/kg, ig administered once daily for 7 days by hematoxylin-eosin staining based histological analysis; assay type: toxicity, organism-based, Liver; conditions: in vivo, po, 168 h, time 7 day
[25] = Hepatotoxicity in zymosan-induced rat arthritis model assessed as change in hepatocyte shape at 215 mg/kg, ig administered once daily for 7 days by hematoxylin-eosin staining based histological analysis; assay type: toxicity, organism-based, Liver; conditions: in vivo, po, 168 h, time 7 day
[26] = Hepatotoxicity in zymosan-induced rat arthritis model assessed as change in shape of liver central veins at 215 mg/kg, ig administered once daily for 7 days by hematoxylin-eosin staining based histological analysis; assay type: toxicity, organism-based; conditions: in vivo, po, 168 h, time 7 day
Rattus norvegicus [27] = experiment: Antipyretic activity against LPS-induced polyphasic febrile response in rats assessed as change in core body temperature at 215 mg/kg, po treated 40 mins prior to LPS addition and measured after 160 mins during phase 1 (reference value: 0.85 deg C); assay type: functional, organism-based; conditions: time 200.0 min
[28] = Hepatotoxicity in zymosan-induced rat arthritis model assessed as change in hepatocyte karyoplasm at 215 mg/kg, ig administered once daily for 7 days by hematoxylin-eosin staining based histological analysis; assay type: toxicity, organism-based, Liver; conditions: in vivo, po, 168 h, time 7 day
Rattus norvegicus [29] = experiment: Antipyretic activity against LPS-induced polyphasic febrile response in rats assessed as return of body temperature to background value at 215 mg/kg, po treated 40 mins prior to LPS addition and measured after 190 mins; assay type: functional, organism-based; conditions: time 230.0 min
[30] = Hepatotoxicity in zymosan-induced rat arthritis model assessed as effect on general architecture of liver at 215 mg/kg, ig administered once daily for 7 days by hematoxylin-eosin staining based histological analysis; assay type: toxicity, organism-based; conditions: in vivo, po, 168 h, time 7 day
[31] = Hepatotoxicity in zymosan-induced rat arthritis model assessed as appearance of vacuoles in hepatocyte cytoplasm at 215 mg/kg, ig administered once daily for 7 days by hematoxylin-eosin staining based histological analysis; assay type: toxicity, organism-based, Liver; conditions: in vivo, po, 168 h, time 7 day
Rattus norvegicus [32] = experiment: Antipyretic activity against LPS-induced polyphasic febrile response in rats assessed as suppression of rise in core body temperature at 215 mg/kg, po treated 40 mins prior to LPS addition and measured after 160 mins relative to control; assay type: functional; conditions: time 200 min, 3.333 h
[33] = Hepatotoxicity in zymosan-induced rat arthritis model assessed as effect on sinusoids elongation at 215 mg/kg, ig administered once daily for 7 days by hematoxylin-eosin staining based histological analysis; assay type: toxicity, organism-based, Liver; conditions: in vivo, po, 168 h, time 7 day
[34] = Hepatotoxicity in zymosan-induced rat arthritis model assessed as change in shape of liver portal tracts at 215 mg/kg, ig administered once daily for 7 days by hematoxylin-eosin staining based histological analysis; assay type: toxicity, organism-based; conditions: in vivo, po, 168 h, time 7 day
[35] = Hepatotoxicity in zymosan-induced rat arthritis model assessed as change in hepatocyte cytoplasmic appearance at 215 mg/kg, ig administered once daily for 7 days by hematoxylin-eosin staining based histological analysis; assay type: toxicity, organism-based, Liver; conditions: in vivo, po, 168 h, time 7 day
Rattus norvegicus [36] = experiment: Antipyretic activity against LPS-induced polyphasic febrile response in rats assessed as suppression of rise in core body temperature at 215 mg/kg, po treated 40 mins prior to LPS addition and measured after 10 mins; assay type: functional, organism-based; conditions: time 50.0 min

CCCCCCCC(=O)Nc1ccc(OCC(=O)NCCO)cc1
12.3%: inhibition in vivo at 180 mg/kg (Rattus norvegicus [1])
0.28 °C: ΔTm (Rattus norvegicus [15])
active: Activity (Rattus norvegicus [2]) | Activity (Rattus norvegicus [16])
3: fold change (FC) (Rattus norvegicus [5])
Non-toxic: Activity [3] | Activity [6] | Activity [7] | Activity [8] | Activity [9] | Activity [10] | Activity [11] | Activity [12] | Activity [13] | Activity [14] | Activity [17] | Activity [18]
48.1%: inhibition in vivo at 180 mg/kg (Rattus norvegicus [4])

CCCCCCCCCCCCCCCC(=O)Nc1ccc(OCC(=O)O)cc1
3: fold change (FC) (Rattus norvegicus [32])
21.7%: inhibition in vivo at 215 mg/kg (Rattus norvegicus [22])
Non-toxic: Activity [19] | Activity [20] | Activity [23] | Activity [24] | Activity [25] | Activity [26] | Activity [28] | Activity [30] | Activity [31] | Activity [33] | Activity [34] | Activity [35]
active: Activity (Rattus norvegicus [29]) | Activity (Rattus norvegicus [36])
42.2%: inhibition in vivo at 215 mg/kg (Rattus norvegicus [21])
0.28 °C: ΔTm (Rattus norvegicus [27])
